In data set [1] the test system is histamine-induced skin reactions in guinea pigs. The experiment in a line: Effect on histamine-induced skin reactions in guinea pigs (skin vascular permeability). The class given is in vivo, guinea pig. As to conditions: oral 3 mg/kg, same manner as Experimental Example 1a, Table 3. The method, then:
Effect on Histamine-induced Skin Reactions in Guinea Pigs
Male Hartley guinea pigs weighing about 500 g were used. After the dorsal hair was shaved under ether anesthesia, 1 ml of a 2.5% pontamine sky blue solution was injected intravenously administered, and then 0.1 ml of histamine at 3 μg/ml was injected intradermally into 2 sites (left and right) in the back. Thirty minutes after the injection of histamine, the animals were killed by bleeding and the skin was removed. Two perpendicular diameters (mm) of each blue spot on the inside of the skin were measured and multiplied; the mean for the two products was taken as the microvascular permeability index. Test compounds were suspended in a 5% gum arabic solution and orally administered in a volume of 0.2 ml/100 g body weight 1 hour before histamine administration. Animals in the control group received the same volume of a 5% gum arabic solution. The suppression rate of the sample for the title reaction was calculated using Equation 1, and the results are given in Table 1.
Inhibition (%) of histamine-induced skin reactions=100×(1−vascular permeability index in the presence of drug/vascular permeability index in control group) Equation 1
In the same manner as Experimental Example 1a, the effects of various example compounds on histamine-induced skin reactions in guinea pigs were examined.

The subject of data set [2] is guinea pig eosinophils. The experiment in a line: Suppression of LTB4-induced chemotactic reaction in guinea pig eosinophils. The class given is cell-based. The conditions noted are these: LTB4-induced chemotaxis, same manner as Experimental Example 2a (1×10^−5 M); Table 4. The method, then:
1) Preparation of Guinea Pig Eosinophils
To male Hartley guinea pigs, 2 ml of equine serum (Bio-Whittaker, Inc.) was intraperitoneally administered once weekly for 8 consecutive weeks. At 48 hours after final administration, 75 ml of physiological saline was intraperitoneally injected, after which the saline was recovered and centrifuged at 400×g for 5 minutes. The resulting sediment was suspended in 5 ml of Percoll solution (density (d)=1.07) and layered on top of the multiple layers of different densities of Percoll solution (density(d)=1.112, 5 ml; d=1.095, 10 ml; d=1.090, 10 ml; d=1.085, 5 ml), followed by centrifugation at 1,000×g for 25 minutes (20° C.). The cell layer formed at the interface between densities 1.112 and 1.095 was collected. Erythrocytes present in the collected cell sediment were removed by hypotonic treatment (suspended in water for […]).
The cell sediment was washed 3 times with Hanks' solution containing 10 mM Hepes (Dojin Kagaku) (Hanks-Hepes) and suspended in a Hanks-Hepes solution containing 2% human serum albumin (Wako Pure Chemical Industry or Sigma) (Hanks-Hepes-HSA) to a final concentration of 5.56×10^6 cells/ml. Eosinophil purity was 90%, viability being over 98%.
2) Determination of Chemotactic Reaction Suppression
To a 24-well petri dish, which serves as a lower chamber, 600 μl of Hanks-Hepes-HSA solution containing LTB4 (final concentration 10^−8 M, Cascade Biochemical Ltd.), was transferred, followed by incubation at 37° C. for 30 minutes in a carbon dioxide incubator. Separately, 200 μl of eosinophil suspension (5×10^6 cells/ml), previously incubated at 37 C for 15 minutes, was added to Chemotaxicell (polycarbonate membrane, pore size 3 μm, thickness 10 μm), which serves as an upper chamber, after the upper chamber was attached to the 24-well petri dish. After 2 hours of reaction in the CO2 incubator, the Chemotaxicell was removed; 60 μl of a 2% (w/v) solution of EDTA in physiological saline was added to the liquid in the lower chamber. After the mixture was on cooled ice, the cells migrating into the lower chamber were counted using a blood cell counter [Coulter Counter (trade name)]. The test drug, dissolved in N,N-dimethyl formamide (DMF), was added to both the upper and lower chambers to a final concentration of 10^-5 M.
Chemotactic reaction suppression rate=[1−(number of migrating cells in the presence of drug/number of migrating cells in the absence of drug).]×100 Equation 2
Suppression rates of LTB4-induced chemotactic reaction by test substances (1×10^−5 M) were calculated using the above equation.
In the same manner as Experimental Example 2a, the percent suppression of LTB4-induced chemotactic reactions by various example compounds was calculated.

Structures can show the parent of a compound that is named as a salt.

The term melting point denotes the temperature of the solid-liquid transition. In the case of `CCOC(=O)C(C)(C)n1nc2ccc(OCCCN3CCC(OC(c4ccccc4)c4ccccc4)CC3)nn2c1=O.Cl`, the melting point worked out at 129 °C.
As to `c1ccc(C(OC2CCN(CCCCCCOc3ccc4nncn4n3)CC2)c2ccccc2)cc1` (as salt: fumarate) [Example 7a, 6-[6-[4-(Diphenylmethoxy)piperidino]hexyloxy][1,2,4]triazolo[4,3-b]pyridazine Fumarate], the melting point lay within 144 to 146 °C.
In the case of `c1ccc(C(c2ccccc2)N2CCN(CCCOc3ccc4nncn4n3)CC2)cc1` [Example 1a, 6-[3-[4-(Diphenylmethyl)-1-piperazinyl]propoxy][1,2,4]triazolo[4,3-b]pyridazine], the melting point was in the range of 132 to 134 °C.
Molecule `c1ccc(C(c2ccccc2)N2CCN(CCCSc3ccc4nncn4n3)CC2)cc1` [Example 2a, 6-[3-[4-(Diphenylmethyl)-1-piperazinyl]propylthio][1,2,4]triazolo[4,3-b]pyridazine] gave a melting point of 143 to 144 °C.
`Cn1nc2ccc(OCCCN3CCC(OC(c4ccccc4)c4ccccc4)CC3)nn2c1=O` [Example 2b, 6-[3-[4-(Diphenylmethoxy)piperidino]propoxy]-2-methyl[1,2,4]triazolo[4,3-b]pyridazin-3(2H)-one] yielded a melting point of 139 to 140 °C.
In turn, `O=c1[nH]nc2ccc(NCCCN3CCC(OC(c4ccccc4)c4ccccc4)CC3)nn12` [Example 3b, 6-[3-[4-(Diphenylmethoxy)piperidino]propylamino][1,2,4]triazolo[4,3-b]pyridazin-3(2H)-one] displayed a melting point of 156 to 170 °C. The “Suppression (%) of histamine-induced skin vascular permeability elevation, oral administration at 3 mg/kg” value in data set [1] amounted to 94%.
In the case of `c1ccc(C(OC2CCN(CCCNc3ccc4nncn4n3)CC2)c2ccccc2)cc1` [Example 4a, 6-[3-(4-(Diphenylmethoxy)piperidino]propylamino][1,2,4]triazolo[4,3-b]pyridazine], the melting point lay within 167 to 168 °C.
Regarding `O=c1[nH]nc2ccc(OCCCN3CCC(OC(c4ccccc4)c4ccccc4)CC3)nn12` [Example 4b, 6-[3-[4-(Diphenylmethoxy)piperidino]propoxy][1,2,4]triazolo[4,3-b]pyridazin-3(2H)-one], the melting point is 209 to 211 °C. Besides, in data set [1], the “Suppression (%) of histamine-induced skin vascular permeability elevation, oral administration at 3 mg/kg” value stood at 92%.
As for `CCOC(=O)Cn1nc2ccc(OCCCN3CCC(OC(c4ccccc4)c4ccccc4)CC3)nn2c1=O` [Example 5b, Ethyl 2-[6-[3-[4-(Diphenylmethoxy)piperidino]propoxy]-3-oxo[1,2,4]triazolo[4,3-b]pyridazin-2(3H)-yl]acetate], the melting point is 124 to 125 °C.
For `c1ccc(C(OC2CCN(CCOc3ccc4nncn4n3)CC2)c2ccccc2)cc1` [Example 6a, 6-(2-[4-(Diphenylmethoxy)piperidino]ethoxy][1,2,4]triazolo[4,3-b]pyridazine], the melting point was 149 to 150 °C.
Molecule `CC(C)(C(=O)O)n1nc2ccc(NCCCN3CCC(OC(c4ccccc4)c4ccccc4)CC3)nn2c1=O` [Example 9b, 2-[6-[3-[4-(Diphenylmethoxy)piperidino]propylamino]-3-oxo[1,2,4]triazolo[4,3-b]pyridazin-2(3H)-yl]-2-methylpropionic Acid] showed a melting point of 181 to 185 °C.
On to `CC(C)(C)C(=O)OCn1nc2ccc(NCCCN3CCC(OC(c4ccccc4)c4ccccc4)CC3)nn2c1=O` [Example 10b, 6-[3-[4-(Diphenylmethoxy)piperidino]propylamino]-2-(pivaloyloxymethyl)[1,2,4]triazolo[4,3-b]pyridazin-3(2H)-one], for which the melting point is 168 to 171 °C. The “Suppression rate (%)” value in data set [2] is given as 55%.
Molecule `c1ccc(C(c2ccccc2)N2CCN(CCCCCCNc3ccc4nncn4n3)CC2)cc1` [Example 11a, 6-[6-[4-(Diphenylmethyl)-1-piperazinyl]hexylamino][1,2,4]triazolo[4,3-b]pyridazine] gave a melting point of 133 to 139 °C.
`CC(C)(C)C(=O)OCOC(=O)C(C)(C)n1nc2ccc(NCCCN3CCC(OC(c4ccccc4)c4ccccc4)CC3)nn2c1=O` [Example 11b, pivaloyloxymethyl 2-[6-[3-[4-(Diphenylmethoxy)piperidino]propylamino]-3-oxo[1,2,4]triazolo[4,3-b]pyridazin-2(3H)-yl]-2-methylpropionate] showed a melting point of 162 °C. The “Suppression rate (%)” value in data set [2] is reported as 100%.
`OC(COc1ccc2nncn2n1)CN1CCN(C(c2ccccc2)c2ccccc2)CC1` (stereo not drawn) [Example 15a, 6-[3-[4-(Diphenylmethyl)-1-piperazinyl]-2-hydroxypropoxy][1,2,4]triazolo[4,3-b]pyridazine]: the melting point lay within 95 to 97 °C.
`CC(C)(C(=O)O)c1nnc2ccc(NCCCN3CCC(OC(c4ccccc4)c4ccccc4)CC3)nn12` [Example 19a, 2-[6-[3-[4-(Diphenylmethoxy)piperidino]propylamino][1,2,4]triazolo[4,3-b]pyridazin-3-yl]-2-methylpropionic Acid] came in with a melting point of 155 to 157 °C.
In turn, `CCOC(=O)c1nnc2ccc(NCCCN3CCC(OC(c4ccccc4)c4ccccc4)CC3)nn12` [Example 21a, Ethyl 6-[3-[4-(Diphenylmethoxy)piperidino]propylamino][1,2,4]triazolo[4,3-b]pyridazine-3-carboxylate] yielded a melting point of 129 to 133 °C.
Molecule `CC(C)(C(N)=O)c1nnc2ccc(OCCCN3CCC(OC(c4ccccc4)c4ccccc4)CC3)nn12` [Example 23a, 2-[6-[3-[4-(Diphenylmethoxy)piperidino]propoxy][1,2,4]triazolo[4,3-b]pyridazin-3-yl]-2-methylpropionamide] returned a melting point of 133 to 136 °C.
The molecule `CCOC(=O)C(C)(C)NC(=O)c1nnc2ccc(NCCCN3CCC(OC(c4ccccc4)c4ccccc4)CC3)nn12` [Example 25a, N-[6-[3-[4-(Diphenylmethoxy)piperidino]propylamino][1,2,4]triazolo[4,3-b]pyridazine-3-carbonyl]-2,2-dimethylglycine Ethyl Ester] yielded a melting point of 165 to 167 °C.
Same read-out and setting: under `CC(C)(NC(=O)c1nnc2ccc(NCCCN3CCC(OC(c4ccccc4)c4ccccc4)CC3)nn12)C(=O)O` [Example 26a, N-[6-[3-[4-(Diphenylmethoxy)piperidino]propylamino][1,2,4]triazolo[4,3-b]pyridazine-3-carbonyl]-2,2-dimethylglycine] stands 191 to 193 °C; under `CC(C)(NC(=O)c1nnc2ccc(OCCCN3CCC(OC(c4ccccc4)c4ccccc4)CC3)nn12)C(=O)O` [Example 28a, N-[6-[3-[4-(Diphenylmethoxy)piperidino]propoxy][1,2,4]triazolo[4,3-b]pyridazine-3-carbonyl]-2,2-dimethylglycine], 163 to 165 °C; under `CCOC(=O)CNC(=O)c1nnc2ccc(NCCCN3CCC(OC(c4ccccc4)c4ccccc4)CC3)nn12` [Example 29a, N-[6-[3-[4-(Diphenylmethoxy)piperidino]propylamino][1,2,4]triazolo[4,3-b]pyridazine-3-carbonyl]glycine ethyl ester], 152 to 155 °C.
Same read-out and setting: for `O=C(O)CNC(=O)c1nnc2ccc(NCCCN3CCC(OC(c4ccccc4)c4ccccc4)CC3)nn12` [Example 30a, N-[6-[3-[4-(Diphenylmethoxy)piperidino]propylamino][1,2,4]triazolo[4,3-b]pyridazine-3-carbonyl]glycine] the value was 182 to 184 °C.

The values are drawn from US6610694B1, “Condensed pyridazine compounds, their production and use” (Takeda Chemical Industries, Ltd., priority 1998, dated 2003).
